Measurements from patent US11667652B2, “MCL1 inhibitors” (Gilead Sciences, Inc., priority 2019, dated 2023).
Like-named read-outs stand apart in the source and are kept apart here.

Columns and labels:
[1] = tested on: SKBR3 cells; experiment: SKBR3 Cell Viability Assay; format: cell-based; conditions: CellTiter Glo, read-out: MCL1 CV SKBR3 EC50
Summary of the method: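 Viability was measured by CellTiter-Glo luminescence after 72 h at 37° C, 5% CO2. Each well held 6,000 SKBR3 cells in McCoy's 5A/10% FBS dispensed onto serially diluted compound. Percent inhibition is relative to DMSO and 10 μM puromycin controls.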

[2] = molecular target: MCL1/Bim (Homo sapiens (Human), UniProt Q07820); experiment: MCL1/Bim Binding AlphaLISA Assay; conditions: recombinant human 6xHis-MCL1 (171-327), biotinylated Bim peptide (51-76)
Chain of MCL1/Bim (Q07820 171-327): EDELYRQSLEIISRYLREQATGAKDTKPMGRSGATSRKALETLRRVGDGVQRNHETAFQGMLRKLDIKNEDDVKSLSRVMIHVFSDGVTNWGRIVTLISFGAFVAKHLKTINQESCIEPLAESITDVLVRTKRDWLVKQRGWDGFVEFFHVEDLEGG
Summary of the method: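 AlphaLISA with 0.0625 nM human 6×His-MCL1 (171-327) and 0.0625 nM biotinylated Bim (51-76) peptide in 20 mM Hepes pH 7.5, 150 mM NaCl, 0.002% Brij 35, 1 mM DTT, 0.01% BSA. Compound preincubated with MCL1 1 h, Bim added 2 h, then acceptor and donor beads 1 h each; % inhibition versus DMSO and no-protein/peptide controls.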

[3] = Homo sapiens, SK-BR-3, 72 hours

Compound | EC50 [1, 3] [nM] | IC50 [2] [nM] | EC50 ([1]; 72 hours) [nM]
COc1nn(C)cc1C(=O)N[S@@]1(=O)=NC(=O)c2ccc3c(c2F)N(C[C@@H]2CC[C@H]2C(OC)/C=C/[C@H](OC)[C@H](C)C1)C[C@@]1(CCCc2cc(Cl)ccc21)CO3 (stereo partly drawn) [Example 162] | 27.7 | 0.053 | –
COc1nn(C)cc1C(=O)N[S@@]1(=O)=NC(=O)c2ccc3c(c2)N(C[C@@H]2CC[C@H]2[C@@H](OCCN2CC(C(F)F)C2)/C=C/C[C@H](C)C1)C[C@@]1(CCCc2cc(Cl)ccc21)CO3 [Example 62] | 17.5 | 0.069 | –
COc1nn(C)cc1C(=O)N[S@@]1(=O)=NC(=O)c2ccc3c(c2)N(C[C@@H]2CC[C@H]2[C@@H](O)C#CC[C@H](C)C1)C[C@@]1(CCCc2cc(Cl)ccc21)CO3 [Example 36] | – | 0.267 | 1070
COCCOCCOCCO[C@H]1/C=C/[C@H](OC)[C@@H]2CC[C@H]2CN2C[C@@]3(CCCc4cc(Cl)ccc43)COc3ccc(cc32)C(=O)N=[S@](=O)(NC(=O)c2cn(C)nc2OC)C[C@H]1C [Example 76] | 24.1 | 0.048 | –
CNc1nc(N[S@@]2(=O)=NC(=O)c3ccc4c(c3)N(C[C@@H]3CC[C@H]3[C@@H](OC)/C=C/C[C@H](C)C2)C[C@@]2(CCCc3cc(Cl)ccc32)CO4)c2cn(C)nc2n1 [Example 18] | 19.6 | 0.042 | –
CO[C@H]1/C=C/C[C@H](C)C[S@@](=O)(Nc2nc(NCCN3CCOCC3)nc3nn(C)cc23)=NC(=O)c2ccc3c(c2)N(C[C@@H]2CC[C@H]21)C[C@@]1(CCCc2cc(Cl)ccc21)CO3 [Example 20] | 41.3 | 0.313 | –
CO[C@H]1/C=C/C[C@H](C)C[S@@](=O)(NC(=O)[C@H]2C[C@@](C)(O)C2)=NC(=O)c2ccc3c(n2)N(C[C@@H]2CC[C@H]21)C[C@@]1(CCCc2cc(Cl)ccc21)CO3 [Example 190] | 306 | 0.15 | –
C[C@H]1C/C=C/[C@H](O)[C@@H]2CC[C@H]2CN2C[C@@]3(CCCc4cc(Cl)ccc43)COc3ccc(cc32)C(=O)N=[S@](=O)(Nc2ncnc3nn(C)cc23)C1 [Example 29] | 15.3 | 0.038 | –
COc1nn(C)cc1C(=O)N[S@@]1(=O)=NC(=O)c2ccc3c(c2)N(C[C@@H]2CC[C@H]2[C@@](O)(CC(=O)N2CCN4CCOCC4C2)/C=C/C[C@H](C)C1)C[C@@]1(CCCc2cc(Cl)ccc21)CO3 (stereo partly drawn) [Example 102] | – | 0.026 | 16.1
Cn1nccc1CCC(=O)NS1(=O)=NC(=O)c2ccc3c(c2)N(C[C@@H]2CC[C@H]2[C@@H](OCCN2CCOCC2)/C=C/CCC1)C[C@@]1(CCCc2cc(Cl)ccc21)CO3 (stereo partly drawn) [Example 49] | – | 0.194 | 525
COc1nn(C)cc1C(=O)N[S@@]1(=O)=NC(=O)c2ccc3c(c2)N(C[C@@H]2CC[C@H]2[C@@H](OC)/C=C/[C@H](OCCN2CC(OC)C2)[C@H](C)C1)C[C@@]1(CCCc2cc(Cl)ccc21)CO3 [Example 81] | 6.3 | 0.011 | –
CCn1cc(C(=O)N[S@@]2(=O)=NC(=O)c3ccc4c(c3)N(C[C@@H]3CC[C@H]3[C@@H](OC)/C=C/C[C@H](C)[C@H]2C)C[C@]2(CO4)C[C@@H]3C[C@@H]3c3cc(Cl)ccc32)cn1 [Example 170] | 113 | 0.155 | –
CCO/C1=C/C[C@H](OC)[C@@H]2CC[C@H]2CN2C[C@@]3(CCCc4cc(Cl)ccc43)COc3ccc(cc32)C(=O)N=[S@](=O)(NC(=O)c2cn(C)nc2OC)[C@H](C)[C@H]1C [Example 158] | – | 3.86 | 1950
COCC#Cc1nn(C)cc1C(=O)N[S@@]1(=O)=NC(=O)c2ccc3c(c2)N(C[C@@H]2CC[C@H]2[C@@H](OC)/C=C/C[C@H](C)C1)C[C@@]1(CCCc2cc(Cl)ccc21)CO3 [Example 210] | 109 | 0.05 | –
COc1nc(N[S@@]2(=O)=NC(=O)c3ccc4c(c3)N(C[C@@H]3CC[C@H]3[C@@H](OC)/C=C/C[C@H](C)C2)C[C@@]2(CCCc3cc(Cl)ccc32)CO4)c2cn(C)nc2n1 [Example 10] | 47.6 | 0.084 | –
COc1nn(C)cc1C(=O)N[S@@]1(=O)=NC(=O)c2ccc3c(c2)N(C[C@@H]2CC[C@H]2[C@@H](OC)/C=C/[C@H](OCCN2CC4(COC4)C2)[C@H](C)C1)C[C@@]1(CCCc2cc(Cl)ccc21)CO3 [Example 86] | 64.6 | 0.088 | –
CO[C@H]1/C=C/CCC[S@@](=O)(NC(=O)c2cc3n(c2)CCOC3)=NC(=O)c2ccc3c(c2)N(C[C@@H]2CC[C@H]21)C[C@]1(CO3)C[C@@H]2C[C@@H]2c2cc(Cl)ccc21 [Example 174] | 354 | 0.25 | –
COc1nn(C)cc1C(=O)N[S@@]1(=O)=NC(=O)c2ccc3c(c2)N(C[C@@H]2CC[C@H]2[C@@](O)(CC(=O)N(C)C)/C=C/C[C@H](C)C1)C[C@@]1(CCCc2cc(Cl)ccc21)CO3 [Example 97] | – | 0.047 | 15.8
C[C@H]1C/C=C/[C@H](OCCN2CCOCC2)[C@@H]2CC[C@H]2CN2C[C@@]3(CCCc4cc(Cl)ccc43)COc3ccc(cc32)C(=O)N=[S@](=O)(Nc2ncnc3nn(C)cc23)C1 [Example 52] | 9.5 | 0.081 | –
COc1nn(C)cc1C(=O)N[S@@]1(=O)=NC(=O)c2ccc3c(c2)N(C[C@@H]2CC[C@H]2[C@@H](OC)C[C@H]2CCO[C@@H]2[C@H](C)[C@H]1C)C[C@@]1(CCCc2cc(Cl)ccc21)CO3 [Example 159] | – | 0.689 | 381
COc1ccc2c(N[S@@]3(=O)=NC(=O)c4ccc5c(c4)N(C[C@@H]4CC[C@H]4[C@@H](OC)/C=C/C[C@H](C)C3)C[C@@]3(CCCc4cc(Cl)ccc43)CO5)ncnc2c1 [Example 21] | 882 | 0.156 | –
CC[C@@H]1CC/C=C/[C@H](OC)[C@@H]2CC[C@H]2CN2C[C@@]3(CCCc4cc(Cl)ccc43)COc3ccc(cc32)C(=O)/[N+]([O-])=[S@]\1NC(=O)c1cn(C)nc1OC [Example 41] | – | 0.146 | 126
COc1nn(C)cc1C(=O)N[S@]1(=O)=NC(=O)c2ccc3c(c2)N(C[C@@H]2CC[C@H]2C(=O)/C=C/C[C@H](C)C1)C[C@@]1(CCCc2cc(Cl)ccc21)CO3 [Example 47] | – | 0.167 | 81.9
COc1nn(C)cc1C(=O)N[S@@]1(=O)=NC(=O)c2ccc3c(c2)N(C[C@@H]2CC[C@H]2[C@](O)(CC(=O)N2CCN4CCOCC4C2)/C=C/C[C@H](C)C1)C[C@@]1(CCCc2cc(Cl)ccc21)CO3 (stereo partly drawn) [Example 103] | – | 0.074 | 34.6
